Consider one compound from ChEMBL document CHEMBL1128085, “Asymmetric synthesis of FR165914: A novel 3-adrenergic agonist with a benzocycloheptene structure” (Bioorg Med Chem Lett, 1995).

Some results are limits rather than exact numbers.

For experiment [1], the target named is Beta-1 adrenergic receptor (Cavia porcellus, UniProt B0FL73). Description: Agonistic activity against Beta-1 adrenergic receptor in guinea pig atrium. In kind it is functional, tissue-based, Cardiac atrium.
The target of experiment [2] is Beta-3 adrenergic receptor (Rattus norvegicus, UniProt P26255). Description: Agonistic activity against Beta-3 adrenergic receptor in rat colon. In kind it is functional.
Beta-3 adrenergic receptor, sequence (P26255 whole entry): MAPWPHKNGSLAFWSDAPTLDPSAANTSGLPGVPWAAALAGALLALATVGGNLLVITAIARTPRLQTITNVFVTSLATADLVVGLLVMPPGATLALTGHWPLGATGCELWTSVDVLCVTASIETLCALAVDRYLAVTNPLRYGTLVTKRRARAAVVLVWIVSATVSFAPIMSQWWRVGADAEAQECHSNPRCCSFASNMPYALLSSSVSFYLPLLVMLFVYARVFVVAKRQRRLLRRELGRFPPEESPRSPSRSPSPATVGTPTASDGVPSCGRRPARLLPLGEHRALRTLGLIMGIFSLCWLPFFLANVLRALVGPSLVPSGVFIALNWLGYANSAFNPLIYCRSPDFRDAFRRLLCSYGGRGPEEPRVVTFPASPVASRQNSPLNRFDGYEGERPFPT

Beta-1 adrenergic receptor, sequence (B0FL73 whole entry): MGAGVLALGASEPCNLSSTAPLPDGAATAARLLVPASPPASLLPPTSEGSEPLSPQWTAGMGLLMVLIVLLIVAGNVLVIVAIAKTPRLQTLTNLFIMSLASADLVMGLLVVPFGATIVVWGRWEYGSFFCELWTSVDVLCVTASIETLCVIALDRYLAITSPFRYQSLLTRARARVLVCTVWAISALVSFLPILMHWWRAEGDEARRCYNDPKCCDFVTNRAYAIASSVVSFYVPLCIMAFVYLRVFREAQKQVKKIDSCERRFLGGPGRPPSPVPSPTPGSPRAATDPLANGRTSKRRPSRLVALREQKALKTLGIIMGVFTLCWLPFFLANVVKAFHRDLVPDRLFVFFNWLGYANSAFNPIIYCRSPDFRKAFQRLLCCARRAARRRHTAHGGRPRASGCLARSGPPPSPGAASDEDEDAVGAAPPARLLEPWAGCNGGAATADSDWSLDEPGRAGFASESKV

One may read the EC50 as the concentration at which the effect is half-maximal. In general, IC50 refers to the point on the concentration scale where inhibition reaches its midpoint. A low value points to greater potency. With `O=C(O)C1(C(=O)O)Oc2cc3c(cc2O1)C[C@@H](NC[C@H](O)c1cccc(Cl)c1)CCC3`, the EC50 in experiment [1] is greater than 10000 nM. Besides, the IC50 in experiment [2] worked out at 6 nM.
